Experimental data published in ChEMBL document CHEMBL1132332, “A novel acetylated analogue of dynorphin A-(1-11) amide as a kappa-opioid receptor antagonist” (J Med Chem, 1999).
pKi: −log10 of the molar value. Square brackets hold non-standard residues; d marks the D form. Peptide text beside a SMILES is read from it.

Tests used:
[1] = target: Delta-type opioid receptor (Homo sapiens, UniProt P41143); experiment: The compound was tested for binding affinity against Opioid receptor delta 1 by using [3H]- DPDPE as a radioligand
Chain of Delta-type opioid receptor (P41143 whole entry): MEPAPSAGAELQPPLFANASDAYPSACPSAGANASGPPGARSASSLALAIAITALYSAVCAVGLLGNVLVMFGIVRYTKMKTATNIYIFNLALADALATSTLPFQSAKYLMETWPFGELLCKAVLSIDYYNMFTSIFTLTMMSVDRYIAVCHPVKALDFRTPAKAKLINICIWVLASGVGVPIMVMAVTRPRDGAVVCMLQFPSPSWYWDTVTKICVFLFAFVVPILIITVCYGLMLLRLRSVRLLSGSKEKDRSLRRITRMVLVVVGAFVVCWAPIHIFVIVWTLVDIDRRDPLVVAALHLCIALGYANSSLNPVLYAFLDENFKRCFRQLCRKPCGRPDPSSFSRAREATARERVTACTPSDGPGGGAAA

Mu-type opioid receptor = Mu-type opioid receptor (Homo sapiens, UniProt P35372); experiment: The compound was tested for binding affinity against Opioid receptor mu 1 by using [3H]DAMGO as a radioligand
Chain of Mu-type opioid receptor (P35372 whole entry): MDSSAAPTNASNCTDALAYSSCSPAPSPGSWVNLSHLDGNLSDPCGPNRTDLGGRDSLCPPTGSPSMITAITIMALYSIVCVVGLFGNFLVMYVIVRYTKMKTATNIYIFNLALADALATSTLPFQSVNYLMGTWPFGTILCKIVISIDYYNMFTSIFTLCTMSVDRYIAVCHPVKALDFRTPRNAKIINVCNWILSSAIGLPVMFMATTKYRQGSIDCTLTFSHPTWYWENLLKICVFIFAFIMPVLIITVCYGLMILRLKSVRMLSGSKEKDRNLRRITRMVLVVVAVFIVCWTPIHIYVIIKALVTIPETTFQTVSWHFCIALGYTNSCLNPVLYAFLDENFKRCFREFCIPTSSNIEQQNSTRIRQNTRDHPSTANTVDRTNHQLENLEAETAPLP

[2] = target: Kappa-type opioid receptor (Homo sapiens, UniProt P41145); experiment: The compound was tested for binding affinity against Opioid receptor kappa 1 by using [3H]Diprenorphine as a radioligand
Chain of Kappa-type opioid receptor (P41145 whole entry): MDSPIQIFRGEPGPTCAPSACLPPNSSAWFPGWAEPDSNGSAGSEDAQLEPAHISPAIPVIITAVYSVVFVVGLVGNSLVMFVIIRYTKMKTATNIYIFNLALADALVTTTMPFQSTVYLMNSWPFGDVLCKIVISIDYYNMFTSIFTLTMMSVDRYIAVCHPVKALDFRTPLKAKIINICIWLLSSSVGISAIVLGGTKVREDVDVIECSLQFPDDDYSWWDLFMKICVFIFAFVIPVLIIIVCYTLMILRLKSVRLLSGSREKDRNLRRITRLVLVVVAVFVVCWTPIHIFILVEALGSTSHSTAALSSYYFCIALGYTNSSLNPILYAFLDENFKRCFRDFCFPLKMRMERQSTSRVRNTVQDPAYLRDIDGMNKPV

Compound | pKi [1] | pKi (Mu-type opioid receptor) | pKi [2]
CC(C)C[C@H](NC(=O)[C@H](Cc1ccccc1)NC(=O)CNC(=O)CNC(=O)[C@@H](N)Cc1ccc(O)cc1)C(=O)N[C@@H](CCCN=C(N)N)C(=O)N[C@@H](CCCN=C(N)N)C(=O)N[C@H](C)C(=O)N[C@@H](CCCN=C(N)N)C(=O)N1CCC[C@H]1C(=O)N[C@@H](CCCCN)C(N)=O | 7.91 | 8.71 | 9.72
CC(=O)N[C@@H](Cc1ccc(O)cc1)C(=O)N[C@@H](CCCCN)C(=O)N[C@@H](Cc1c[nH]c2ccccc12)C(=O)N[C@@H](Cc1c[nH]c2ccccc12)C(N)=O (Ac-YKWW-NH2) | 5.46 | 5.44 | 5.86
CC(=O)N[C@@H](Cc1ccc(O)cc1)C(=O)N[C@@H](CCCCN)C(=O)N[C@@H](Cc1c[nH]c2ccccc12)C(=O)N[C@@H](Cc1c[nH]c2ccccc12)C(=O)N[C@@H](CC(C)C)C(=O)N[C@@H](CCCN=C(N)N)C(=O)N[C@@H](CCCN=C(N)N)C(=O)N[C@H](C)C(=O)N[C@@H](CCCN=C(N)N)C(=O)N1CCC[C@H]1C(=O)N[C@@H](CCCCN)C(N)=O (Ac-YKWWLRR[dA]RPK-NH2) | 5.27 | 6.60 | 7.70
